Test system: patients with evidence of coronary artery disease
Assay: dal-PLAQUE-2: change in carotid intima-media thickness (B-mode ultrasound) by ADCY9 genotype
Assay type: in vivo, human
Text: The dal-PLAQUE-2 study (Tardif J C et al, Circulation Cardiovascular imaging 2011; 4:319-33) was a phase 3b multicenter, double-blind, randomized, placebo-controlled, parallel group trial designed to evaluate the effect of dalcetrapib on atherosclerotic disease progression in patients with evidence of coronary artery disease and carotid intima media thickness of at least 0.65 mm in the far wall of the common carotid arteries, as assessed by B-mode ultrasonography. A total of 931 patients were randomized to receive dalcetrapib 600 mg daily or matching placebo with intended treatment duration of 24 months. However, the trial was terminated prematurely concurrent with the termination of dal OUTCOMES (the latter due to futility). Patients continued study medication until they returned for follow-up carotid imaging at 12 months. Carotid B-mode ultrasound recordings at baseline, month 6, and month 12 were analyzed centrally at the core laboratory of the Montreal Heart Institute. Intima-media thickness (IMT) was analyzed on the far wall of the common carotid arteries. A segment of 10 mm in length of the common carotid artery was analyzed on serial examinations using an automated edge detection software (Carotid Analyzer, Medical Imaging Applications, Coralville, Iowa). Among the 411 participants in the dal-PLAQUE-2 trial who consented to the genetic study, 386 had imaging measures at baseline, 6 months and 12 months (194 and 192 in the dalcetrapib and placebo arms respectively). DNA was extracted from whole blood. The research protocols were approved by the relevant institutional review boards or ethics committees and all human participants gave written informed consent.
All acquired carotid ultrasound recordings were analyzed at the core laboratory of the Montreal Heart Institute by experienced technicians supervised by a physician. Images were required to meet quality and inclusion and exclusion criteria for eligibility prior to random assignment to study treatment. The methods for carotid intima-media thickness analysis included side-by-side viewing of baseline and follow-up studies.
Carotid arterial wall segments were assessed in a longitudinal view, perpendicular to the ultrasound beam, with a horizontal display of the arterial image in order to view the interfaces between blood and vascular structures on the longest possible segment. The localization of the end of the common carotid artery was used as the landmark in repositioning and analyzing comparative length of segments in baseline and follow-up studies. Intima-media thickness was analyzed on the far wall of the right and left common carotid arteries, to reduce variability of measurements. The average of the mean intima-media thickness values of the right and left common carotid arteries was used. A matched segment of 10 mm in length of the common carotid artery was analyzed on serial examinations (baseline, 6 months and 12 months), starting 5 mm proximal to the carotid bifurcation. The edge detection software Carotid Analyzer (Medical Imaging Applications LLC, Coralville, Iowa) was used to analyze intima-media thickness using the automated option. Two sets of carotid artery borders were identified: First, the media-adventitia borders were determined and verified by the reader. When required, their locations were semi-automatically modified to the correct location. When these borders were approved, the lumen-intima boundaries were automatically detected using the media-adventitia borders for guidance. Frames from looped sequences of intima-media thickness were selected for reading, and poor quality outlier frames were removed from the analysis when required.
For the dal-Plaque-2 population, mixed regression models for repeated measures analysis were tested in SAS software. The dal-Plaque-2 tested endpoint was the mean of IMT measures of common carotid arteries at the 6-month and the 12-month visits, using the baseline measure as covariate. […]

CCC(CC)CC1(C(=O)Nc2ccccc2SC(=O)C(C)C)CCCCC1 [dalcetrapib, thioisobutyric acid S-(2-{[1-(2-ethyl-butyl)-cyclohexanecarbonyl]-amino}-phenyl) ester]
Change from baseline in carotid intima-media thickness, Mean (rs8061182, homozygotes for minor allele, M12): −0.001 mm
Change from baseline in carotid intima-media thickness, Mean (rs11647778, heterozygotes, M06): −0.002 mm
Change from baseline in carotid intima-media thickness, Mean (rs11647778, heterozygotes, M12): 0.001 mm
Change from baseline in carotid intima-media thickness, Mean (rs11647778, homozygotes for major allele, M06): 0.011 mm
Change from baseline in carotid intima-media thickness, Mean (rs11647778, homozygotes for major allele, M12): 0.008 mm
Change from baseline in carotid intima-media thickness, Mean (rs11647778, homozygotes for minor allele, M06): −0.013 mm
Change from baseline in carotid intima-media thickness, Mean (rs11647778, homozygotes for minor allele, M12): −0.026 mm
Change from baseline in carotid intima-media thickness, Mean (rs11647828, heterozygotes, M06): −0.002 mm
Change from baseline in carotid intima-media thickness, Mean (rs11647828, heterozygotes, M12): −0.003 mm
Change from baseline in carotid intima-media thickness, Mean (rs11647828, homozygotes for major allele, M06): 0.011 mm
Change from baseline in carotid intima-media thickness, Mean (rs11647828, homozygotes for major allele, M12): 0.009 mm
Change from baseline in carotid intima-media thickness, Mean (rs11647828, homozygotes for minor allele, M06): −0.018 mm
Change from baseline in carotid intima-media thickness, Mean (rs11647828, homozygotes for minor allele, M12): −0.020 mm
Change from baseline in carotid intima-media thickness, Mean (rs12595857, heterozygotes, M06): −0.003 mm
Change from baseline in carotid intima-media thickness, Mean (rs12595857, heterozygotes, M12): −0.002 mm
Change from baseline in carotid intima-media thickness, Mean (rs12595857, homozygotes for major allele, M06): 0.011 mm
Change from baseline in carotid intima-media thickness, Mean (rs12595857, homozygotes for major allele, M12): 0.010 mm
Change from baseline in carotid intima-media thickness, Mean (rs12595857, homozygotes for minor allele, M06): −0.008 mm
Change from baseline in carotid intima-media thickness, Mean (rs12595857, homozygotes for minor allele, M12): −0.018 mm
Change from baseline in carotid intima-media thickness, Mean (rs12599911, heterozygotes, M06): −0.003 mm
Change from baseline in carotid intima-media thickness, Mean (rs12599911, heterozygotes, M12): −0.002 mm
Change from baseline in carotid intima-media thickness, Mean (rs12599911, homozygotes for major allele, M06): 0.011 mm
Change from baseline in carotid intima-media thickness, Mean (rs12599911, homozygotes for major allele, M12): 0.010 mm
Change from baseline in carotid intima-media thickness, Mean (rs12599911, homozygotes for minor allele, M06): −0.008 mm
Change from baseline in carotid intima-media thickness, Mean (rs12599911, homozygotes for minor allele, M12): −0.019 mm
Change from baseline in carotid intima-media thickness, Mean (rs12920508, heterozygotes, M06): −0.003 mm
Change from baseline in carotid intima-media thickness, Mean (rs12920508, heterozygotes, M12): −0.001 mm
Change from baseline in carotid intima-media thickness, Mean (rs12920508, homozygotes for major allele, M06): 0.006 mm
Change from baseline in carotid intima-media thickness, Mean (rs12920508, homozygotes for major allele, M12): 0.005 mm
Change from baseline in carotid intima-media thickness, Mean (rs12920508, homozygotes for minor allele, M06): −0.005 mm
Change from baseline in carotid intima-media thickness, Mean (rs12920508, homozygotes for minor allele, M12): −0.021 mm
Change from baseline in carotid intima-media thickness, Mean (rs12935810, heterozygotes, M06): −0.003 mm
Change from baseline in carotid intima-media thickness, Mean (rs12935810, heterozygotes, M12): −0.001 mm
Change from baseline in carotid intima-media thickness, Mean (rs12935810, homozygotes for major allele, M06): −0.006 mm
Change from baseline in carotid intima-media thickness, Mean (rs12935810, homozygotes for major allele, M12): −0.007 mm
Change from baseline in carotid intima-media thickness, Mean (rs12935810, homozygotes for minor allele, M06): 0.021 mm
Change from baseline in carotid intima-media thickness, Mean (rs12935810, homozygotes for minor allele, M12): 0.010 mm
Change from baseline in carotid intima-media thickness, Mean (rs13337675, heterozygotes, M06): 0.002 mm
Change from baseline in carotid intima-media thickness, Mean (rs13337675, heterozygotes, M12): 0.005 mm
Change from baseline in carotid intima-media thickness, Mean (rs13337675, homozygotes for minor allele, M06): 0.016 mm
Change from baseline in carotid intima-media thickness, Mean (rs13337675, homozygotes for minor allele, M12): −0.011 mm
Change from baseline in carotid intima-media thickness, Mean (rs17136707, heterozygotes, M06): −0.006 mm
Change from baseline in carotid intima-media thickness, Mean (rs17136707, heterozygotes, M12): −0.004 mm
Change from baseline in carotid intima-media thickness, Mean (rs17136707, homozygotes for minor allele, M06): −0.015 mm
Change from baseline in carotid intima-media thickness, Mean (rs17136707, homozygotes for minor allele, M12): −0.008 mm
Change from baseline in carotid intima-media thickness, Mean (rs74702385, heterozygotes, M06): −0.006 mm
Change from baseline in carotid intima-media thickness, Mean (rs74702385, heterozygotes, M12): −0.002 mm
Change from baseline in carotid intima-media thickness, Mean (rs74702385, homozygotes for minor allele, M06): −0.015 mm
Change from baseline in carotid intima-media thickness, Mean (rs74702385, homozygotes for minor allele, M12): −0.008 mm
Change from baseline in carotid intima-media thickness, Mean (rs111590482, heterozygotes, M06): −0.006 mm
Change from baseline in carotid intima-media thickness, Mean (rs111590482, heterozygotes, M12): −0.002 mm
Change from baseline in carotid intima-media thickness, Mean (rs111590482, homozygotes for minor allele, M06): −0.015 mm
Change from baseline in carotid intima-media thickness, Mean (rs111590482, homozygotes for minor allele, M12): −0.008 mm

From patent US12371748B2, “Genetic markers for predicting responsiveness to therapy with HDL-raising or HDL mimicking agent” (Hoffmann-La Roche Inc., priority 2014, dated 2025)
